According to PubChem BioAssay (NCI):
“And” between values parts separate entries of the source, which are not always exact repeats. Equal entries are not always repeated.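 96-well plates; 48 h exposure; 5 concentrations. Endpoints by linear interpolation between flanking doses. Not reached: highest tested concentration assigned. GI50 = concentration required for 50% inhibition of growth. The concentration for full growth arrest is given as TGI.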 Where a SMILES comes first, the peptide text is derived from it. [ ]: non-standard residue; d: D form. The star is where a group is joined. ξ: configuration not given here. Propanoyl(3-(4-MeO-Ph)) = COc1ccc(CCC(=O)*)cc1; Thr(3ξ) = CC(O)[C@H](N)C(=O)O; dNMeL = CN[C@H](CC(C)C)C(=O)O; OBn = c1ccc(CO*)cc1; ξLac = CC(O)C(=O)O

Legend:
Test in all cases: NCI-60 cell line screen, 48 h
SK-MEL-2 melanoma = system: SK-MEL-2 melanoma
MOLT-4 leukemia = system: MOLT-4 leukemia
DMS 114 small cell lung = system: DMS 114 small cell lung
MDA-MB-435 = system: MDA-MB-435
A549 NSCLC = system: A549 NSCLC
RXF 393 renal = system: RXF 393 renal
LOX IMVI melanoma = system: LOX IMVI melanoma
SNB-19 CNS = system: SNB-19 CNS
DMS 273 small cell lung = system: DMS 273 small cell lung
SF-295 CNS = system: SF-295 CNS
NCI-H23 lung = system: NCI-H23 lung

| Compound | GI50 (SK-MEL-2 melanoma) | TGI (SK-MEL-2 melanoma) | GI50 (MOLT-4 leukemia) | TGI (MOLT-4 leukemia) | TGI (DMS 114 small cell lung) | GI50 (MDA-MB-435) | GI50 (A549 NSCLC) | TGI (A549 NSCLC) | GI50 (RXF 393 renal) | GI50 (LOX IMVI melanoma) | TGI (LOX IMVI melanoma) | GI50 (SNB-19 CNS) | TGI (SNB-19 CNS) | TGI (DMS 273 small cell lung) | GI50 (SF-295 CNS) | TGI (SF-295 CNS) | GI50 (NCI-H23 lung) | TGI (NCI-H23 lung) | TGI (MDA-MB-435) | TGI (RXF 393 renal) |
| --- | --- | --- | --- | --- | --- | --- | --- | --- | --- | --- | --- | --- | --- | --- | --- | --- | --- | --- | --- | --- |
| O=C1C=C(N2CC2)C(=O)C=C1N1CC1 | 0.0282 µM | 0.0605 µM and 0.36 µM | 0.00197 µM | 0.248 µM | 0.644 µM | 0.0206 µM | 0.145 µM and 0.86 µM | 11.2 µM | 0.00246 µM | 0.0298 µM | 0.206 µM and 0.386 µM | 0.203 µM | 4.72 µM | 0.52 µM | 0.038 µM | 0.266 µM and 1.3 µM | 0.0141 µM | 0.132 µM and 0.289 µM |  |  |
| COc1cccc2c1C(=O)c1c(O)c3c(c(O)c1C2=O)C[C@@](O)(/C(C)=N/NC(=O)c1ccccc1)C[C@@H]3OC1CC(N)C(O)C(C)O1 (stereo not given in full) |  | 1.41 µM |  | 0.681 µM | 1.11 µM |  |  | 4.25 µM |  |  | 0.709 µM |  | 7.86 µM | 1.65 µM |  | 1.84 µM |  | 1.54 µM | 2.15 µM | 1.28 µM |
| NC(Cc1c[nH]c2ccccc12)C(=O)O (stereo not given) |  | > 300 µM |  | > 300 µM | > 300 µM |  |  | > 300 µM |  |  | > 300 µM |  | > 300 µM | > 300 µM |  | > 300 µM |  | > 300 µM |  | > 300 µM |
| Nc1nc(N)c2nc(-c3ccco3)cnc2n1 |  |  |  | > 100 µM | > 100 µM |  |  | > 100 µM |  |  | > 100 µM |  | > 100 µM |  |  | > 100 µM |  | > 100 µM |  | > 100 µM |
| COc1ccc(CCC(=O)OC(C)[C@H](NC(=O)[C@@H](CC(C)C)N(C)C(=O)[C@@H]2CCCN2C(=O)C(C)O)C(=O)OCc2ccccc2)cc1 (stereo not given in full) (H-[ξLac]P[dNMeL][Thr(3ξ)](Propanoyl(3-(4-MeO-Ph)))-OBn) |  | 36.9 µM |  | 63 µM |  |  |  | > 100 µM |  |  | 41.4 µM |  | > 100 µM |  |  | > 100 µM |  | > 100 µM | 44.7 µM | 44.7 µM |
| Cc1ccc(/C=N/Nc2nncc3ccccc23)s1 |  | > 100 µM |  | > 100 µM |  |  |  | > 100 µM |  |  | > 100 µM |  | > 100 µM |  |  | 98.2 µM |  | > 100 µM | > 100 µM | > 100 µM |
| O=C1CC(c2ccc[nH]2)=NN1c1ccccc1 |  | > 100 µM |  | 85.5 µM |  |  |  | > 100 µM |  |  | > 100 µM |  | > 100 µM |  |  | > 100 µM |  | > 100 µM | > 100 µM | > 100 µM |
| O=c1[nH]c2ccc(CC(=S)N3CCN(c4ccccc4)CC3)cc2o1 |  | > 100 µM |  | > 100 µM |  |  |  | > 100 µM |  |  | > 100 µM |  | > 100 µM |  |  | > 100 µM |  | > 100 µM | > 100 µM | > 100 µM |
| Cc1ccc(/C=N/NC2=NCCN2)s1 |  | > 100 µM |  | > 100 µM |  |  |  | > 100 µM |  |  | > 100 µM |  | > 100 µM |  |  | > 100 µM |  | > 100 µM | > 100 µM | > 100 µM |
| COc1ccc(C2SCC(=O)N2NC(=O)C(C)Oc2ccccc2Cl)cc1 (stereo not given) |  | 50 µM |  | 79.5 µM |  |  |  | > 100 µM |  |  | 62 µM |  | > 100 µM |  |  | > 100 µM |  | > 100 µM | > 100 µM | > 100 µM |
| CCOC(=O)c1cc(=O)oc2c1N(C)c1ncccc1N2 |  | > 100 µM |  | > 100 µM |  |  |  | > 100 µM |  |  | > 100 µM |  | > 100 µM |  |  | > 100 µM |  | > 100 µM | > 100 µM | > 100 µM |
| CC1(C)N=C(/C=N/O)C(C)(C)N1O |  | > 100 µM |  | > 100 µM |  |  |  | > 100 µM |  |  | > 100 µM |  | > 100 µM |  |  | > 100 µM |  | > 100 µM | > 100 µM | > 100 µM |
| COc1ccc(CCc2ccc(O)c(C(=O)O)c2)cc1OC |  | > 100 µM |  | > 100 µM |  |  |  | > 100 µM |  |  | > 100 µM |  | > 100 µM |  |  | > 100 µM |  | > 100 µM | > 100 µM | > 100 µM |
| C=Cc1cc2c(cc1O)CC[C@@H]1[C@@H]2CC[C@]2(C)[C@@H](O)CC[C@@H]12 |  | 21.1 µM |  | 14.5 µM |  |  |  | 19.9 µM |  |  | 25.1 µM |  | 13.6 µM |  |  | 10.5 µM |  | 14.3 µM | 4.29 µM | 8.92 µM |
| Clc1ccc2c(NCCNc3ccnc4cc(Cl)ccc34)ccnc2c1 |  | 34.4 µM |  | 35.3 µM |  |  |  | 35.6 µM |  |  | 34.1 µM |  | 50.2 µM |  |  | 26.2 µM |  | 33.2 µM | 32 µM | 36.1 µM |
| O=C(CN1CCOCC1)CC(O)(C(F)(F)F)C(F)(F)F |  | > 100 µM |  | > 100 µM |  |  |  | > 100 µM |  |  | > 100 µM |  | > 100 µM |  |  | > 100 µM |  | > 100 µM | > 100 µM | > 100 µM |
